Values quoted from earlier work in patent US20050025723A1, “Sunburn treatment and sunburn prevention method” (priority 2000, published 2005).
Entries after “also recorded” stand apart in the source; their conditions may differ.

Experiments:
[1] = tested on: fever; settings: compared with parent peptide α-MSH or α-MSH(11-13); literature statements
[2] = tested on: inflammation; settings: in vitro and in vivo; compared with parent molecule or the L-form tripeptide; literature statements
[3] = tested on: melanocytes and melanoma cells
[4] = tested on: learning and memory; settings: in vivo

Row | Substance | antipyretic potency / activity (reducing fever) [1] | anti-inflammatory activity / potency [2] | biological activity on melanocytes and melanoma cells [3] | learning and memory behavioral effects [4]
1 | lysine-proline-valine [KPV] | parallel those of the parent molecule | parallel those of the parent molecule; also recorded: effective over a very broad range of concentrations, including picomolar concentrations |  | 
2 | [Nle^4,D-Phe^7]α-MSH | approximately ten times more potent than the parent peptide |  | marked biological activity | 
3 | 10-13 sequence: α-MSH 10-13 sequence formed by addition of glycine to α-MSH(11-13) (GKPV; Designed polypeptide with anti-inflammatory, anti-bacterial, anti-fungal and antipyretic properties.) | slightly decreased potency |  |  | 
4 | 9-13 sequence: α-MSH 9-13 sequence (WGKPV; C-terminal sequences of alpha-MSH) | almost devoid of activity |  |  | 
5 | 8-13 sequence: α-MSH 8-13 sequence (RWGKPV; Designed polypeptide with anti-inflammatory, anti-bacterial, anti-fungal and antipyretic properties.) | greater than that of the 11-13 sequence |  |  | 
6 | Ac-[D-K11]-α-MSH 11-13-NH2 |  | same general potency as the L-form of the tripeptide |  | 
7 | MEHFRWG [α-MSH sequence (4-10)] | little | little |  | has learning and memory behavioral effects
